Experimental data: patent US20080051464A1, “Protein phosphatase inhibitors” (The Cleveland Clinic Foundation, priority 2006, published 2008)

Tests used:
recombinant SHP-1 = biological target: T1, recombinant SHP-1 (Homo sapiens, UniProt P29350); assay: rapid in vitro SHP-1 PTPase assay (DIFMUP substrate); type: biochemical; details: 1 μg/well; FIG. 12A
T1 construct: Recombinant protein of SHP-1 PTPase catalytic domain was described
T1 sequence (P29350 244-515 limits assumed): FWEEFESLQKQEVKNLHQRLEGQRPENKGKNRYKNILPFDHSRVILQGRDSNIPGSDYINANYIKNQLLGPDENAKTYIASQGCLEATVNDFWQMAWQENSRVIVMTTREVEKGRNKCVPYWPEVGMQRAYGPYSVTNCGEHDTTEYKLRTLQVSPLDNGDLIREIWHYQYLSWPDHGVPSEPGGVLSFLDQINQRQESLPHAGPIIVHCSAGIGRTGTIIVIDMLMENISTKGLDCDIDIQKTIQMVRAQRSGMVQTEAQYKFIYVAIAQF
Description: Recombinant protein of SHP-1 PTPase catalytic domain was described and stored in Tris buffer (25 mM Tris, pH7.5, 1 mM EDTA, 2 μM 2-ME, 25% glycerol) at −80° C. Fluorescence substrate DIFMUP (6,8-difluoro-4 methylumbelliferyl phosphate) was purchased (Molecular Probes). SSG was reported previously (21-23) and stored at 4° C. in darkness prior to use. Human and mouse IFNγ ELISPOT Kit (R & D System), CD4^+ Cell Intracellular IFNγ Detection Kit (BD Bioscience) and CD8^+ Cell Intracellular IFNγ Detection Kit (BD Bioscience) were purchased from commercial sources. Human Jurkat T cell line (26) and murine B16 melanoma cell line (ATCC) were maintained in […] culture medium supplemented with 10% fetal calf serum (FCS). Antibodies against pLck-pY394 (Cell Signaling), pLck-pY505 (Cell Signaling), pZap70 (pY319, BD Biosciences), pSlp76 (pY128, BD Biosciences) and pLat (pY226, BD Biosciences) were purchased from commercial sources.
(§1) A rapid SHP-1 PTPase assay was developed for screening the compounds in a commercial library of 34,000 drug-like small chemicals (Chembridge, Mass.). Briefly, compounds of the library (1 μg/well in 0.21 DMSO) were placed in 96-well plates (Falcon, 353072) and mixed with recombinant SHP-1 protein (0.1 μg/well) in 90 μl of HEPES buffer (50 mM HEPS, pH 7.5, 150 mM NaCl, 1 mM EDTA, 0.2 mM DTT and 0.1 mg/ml BSA). The plates were incubated at room temperature for 10 minutes prior to the addition of fluorescence substrate DIFMUP (40 μM stock in HEPES buffer, 10 μl/well) to initiate PTPase reaction. Upon completion of PTPase reaction at room temperature for 1 hr in darkness, fluorescence signal of individual wells were recorded using a Vector^2 Multilabel Counter (Vector, CA). They were compared to that of control SHP-1 PTPase reaction (˜10,000 units of fluorescence signal) in the absence of any compound (100%) for calculating relative SHP-1 inhibition induced by the compounds after subtracting the background signal (˜500 units of fluorescence signal) of the substrate.
as §1, with “To evaluate their” for “A rapid”, “inhibitory activity,” for “PTPase assay was developed for screening”, “analogs” for “compounds in a commercial library of 34,000 drug-like small chemicals (Chembridge, Mass.). Briefly, compounds of the library”, “0.2 μl” for “0.21”, “aliquot individually to” for “placed in”, “(500” for “(˜500”

[1] = system: CD3+ and CD3− IFNγ+ splenocytes; assay: spleno-IFNγ+ T cells in B16 tumor mice (flow cytometry); type: in vivo, mouse; details: 1 mg/kg oral, day 22
Description: Splenocytes from mice untreated or treated with L5a2 were stained with appropriate isotype control antibodies or FICT-labeled anti-CD3 monoclonal antibody (BD) plus PE-labeled monoclonal antibody (BD) for intracellular IFNγ following established procedures. The stained samples were washed 3 times, re-suspended in 200 μl of 1% para-formaldehyde solution and analyzed (20,000 cells/sample) using a BD FACS Caliburs cytometer and FlowJoe software.
To gain further insights into the mechanism of action in L5a2 in vivo, spleens were harvested from the B16 tumor mice in the control and the L5a2-treated groups (FIG. 13A) on day 22 to assess whether L5a2 induced IFNγ+ cells in the tumor-bearing mice. It was also determined whether the induced-IFNγ+ cells were of CD3+ T lymphocytes, which were activated TH1 critical for anti-tumor immunity. Splenocytes were prepared and co-stained for intracellular IFNγ and the T cell surface marker CD3 for quantification of IFNγ+T cells by flow cytometry.

[2] = system: IFNγ+ cells in mouse splenocytes; assay: induction of IFNγ+ cells in mouse splenocytes in vitro (ELISPOT); type: cell-based
Description: The splenocytes were cultured in RPMI 1640 medium supplemented with 10% FCS in the absence or presence of designated agents for 16 hrs in flat-bottom 96-well plates coated with a monoclonal antibody specific for mouse IFNγ (mouse IFNγ ELISPOT Kit, R & D System). The plates were then processed for in situ detection of IFNγ+ cells by ELISA following the manufacturer's procedure. Scanning and counting of IFNγ+ cells in the plates were accomplished using an automatic ELISPOT reader with Immunospot2 software (Cellular Technology Ltd). Mouse splenocytes were also untreated or treated with agents for 16 hrs in culture dishes and then stained with appropriate isotype control antibodies or FICT-labeled anti-CD3 monoclonal antibody (BD) plus PE-labeled monoclonal antibody (BD) for intracellular IFNγ following established procedures. The stained samples were washed 3 times, re-suspended in 200 μl of 1% para-formaldehyde solution and analyzed (20,000 cells/sample) using a BD FACS Caliburs cytometer and WinList software.
The splenocytes were cultured in RPMI 1640 medium supplemented with 10% FCS in the absence or presence of designated agents for 16 hrs in flat-bottom 96-well plates coated with a monoclonal antibody specific for mouse IFNγ (mouse IFNγ ELISPOT Kit, R & D System). The plates were then processed for in situ detection of IFNγ+ cells by ELISA following the manufacturer's procedure. Scanning and counting of IFNγ+ cells in the plates were accomplished using an automatic ELISPOT reader with Immunospot2 software (Cellular Technology Ltd).

B16 melanoma tumors = assay: B16 melanoma tumor growth in C57BL/6J mice; type: in vivo
Description: Tumor volume (n=5) was measured during the study period and calculated using the formula for a prolate spheroid. Student's t test was used for assessing the significance of tumor volume differences among differential treatment groups. Mouse viability (daily) and body weights (weekly) were also recorded during the study period. Major internal organs of the mice were inspected visually upon their termination at the end of the experiment.
To assess anti-tumor activity, C57BL/6J mice (˜8-week old, female, Taconic Farms, Germantown, N.Y.) were inoculated (s.c.) at the flanks with B16 melanoma cells (4×10^4 cells/site). […] Tumor volume (n=5) was measured during the study period and calculated using the formula for a prolate spheroid. Student's t test was used for assessing the significance of tumor volume differences among differential treatment groups. Mouse viability (daily) and body weights (weekly) were also recorded during the study period. Major internal organs of the mice were inspected visually upon their termination at the end of the experiment.

B16 melanoma cells = assay: B16 melanoma cell growth in culture (MTT assay); type: cell-based, mouse; details: 6 days (FIG. 13C)
Source text: L5, L6 and L6 analogs (Chembridge), mouse IFNγ ELISPOT Kit (R & D System) and antibody against pLck-pY394 or pERK1/2 (Cell Signaling) were purchased from commercial sources. Human Jurkat T cell line and murine B16 melanoma cell line (ATCC) and other cancer cell lines were maintained in […] culture medium supplemented with 10% fetal calf serum (FCS). The effects of chemical compounds on cancer cell growth in culture were quantified by MTT assays following our established procedures.

[3] = system: HT-29 human colon cancer cells; assay: cytotoxicity of 5FU against HT-29 cells with L6 or analogs (MTT assay); type: cell-based; details: 5FU 2 μm, 3 days, then 4 days culture (FIG. 24)
Description: FIG. 24 illustrates HT-29 cells were treated with L6 or the analogs in the absence or presence of 5FU (2 μm) for 3 days. After washing, the cells were cultured for 4 days prior to quantification of viable cells by MTT assays.

Jurkat cells = assay: Jurkat cell apoptosis (Annexin V / 7-AAD, FACS); type: cell-based, human; details: 16 hrs (FIG. 23)
Description: FIG. 23 illustrates jurkat cells were treated with L6 and analogs in culture for 16 hrs. Cells were then stained for apoptotic marker Annexin V and cell death marker 7-AAD prior to FACS analysis.

MKPs = assay: induction of MKPs substrates in Jurkat cells (Western blotting); type: cell-based, human
Description: FIG. 22 illustrates selective induction of MKPs substrates by L6 and analogs in Jurkat human leukemic cells. Jurkat cells were treated with the compounds for 30 min in culture prior to quantification of MKPs substrates by SDS-PAGE/Western blotting.

[4] = system: SHP-1 substrate pLck-pY394 in Jurkat T cells; assay: induction of pLck-pY394 in Jurkat cells (SDS-PAGE/Western blotting); type: cell-based, human
Description: (§2) Jurkat cells in culture medium (3×10^6 cells/ml, 1 ml/tube) were treated with agents for designated times at room temperature. After brief centrifuging in a microfuge (4,000 rpm, 2 min), the cell pellet was lysed on ice for 30 min in 100 μl of cold lysis buffer (1% NP40, 50 mM Tris, pH 7.4, 150 mM NaCl, 20 mM NaF, 0.2 mM Na3VO4 and 1 mM Na3MO4) containing a cocktail of proteinase inhibitors (Sigma, 1 tablet/10 ml). The lysates were cleared by centrifuging (14,000 rpm, 10 min) in a microfuge at 4° C. to remove insoluble parts, mixed with equal volume of 2×SDS-PAGE sample buffer, boiled for 5 min and analyzed (˜3×10^5 cells/well) by SDS-PAGE/Western blotting. Relative intensities of phosphotyrosine bands were quantified through densitometry analysis.
as §2, with “blotting as described previously (23, 24).” for “blotting.”
as §2, with “blotting as described previously (17, 18).” for “blotting.”

SHP-1 and SHP-2 = assay: SSG inhibition of recombinant and intracellular SHPs (applicant's earlier studies); details: clinically achievable levels

CCOc1ccc(C2=CC(=O)C=CC2=O)cc1 [L5a4]
inhibition of phosphatase activity of recombinant SHP-1 (recombinant SHP-1): completely or almost completely inhibited

O=C1C=CC(=O)C(c2cccc(Cl)c2)=C1 [L5a2]
inhibition of phosphatase activity of recombinant SHP-1 (recombinant SHP-1): completely or almost completely inhibited
increase of CD3+ IFNγ+ cells [1]: ~4.5 fold
increase of CD3− IFNγ+ cells [1]: 1.3 fold
immune cell activation (increase) ([2]; FIG. 11): ~20 fold
growth inhibition of B16 tumors vs control (B16 melanoma tumors; 1 mg/kg body weight daily, Monday-Friday/week, oral gavage): ~75%
survival of treated mice (B16 melanoma tumors; 1 mg/kg daily, oral gavage): survived till the end of the study
inhibition of B16 melanoma cells in culture (B16 melanoma cells): failed to inhibit B16 melanoma cells in culture

O=c1cc(Cl)sn1Cc1ccccc1 [L6a1]
augmentation of 5FU cytotoxicity against HT-29 cells [3]: not
Jurkat cell apoptosis (Jurkat cells): failed to induce apoptosis
MKP predominantly targeted (as indicated by effects on the substrates) (MKPs): inhibited HVH3
differential effects on MKP substrates (pERK1/2, p38, pJNK) (MKPs; 30 min (FIG. 22), L6 at 1-100 ng/ml): lack of activity to induce pJNK or p-p39

O=C1C=CC(=O)C(c2ccc(Cl)cc2Cl)=C1 [L5a1]
inhibition of phosphatase activity of recombinant SHP-1 (recombinant SHP-1): completely or almost completely inhibited
effectiveness in inducing pLck-pY394 relative to L5 ([4]; Jurkat cells, 10 min (FIG. 10)): ~50%

O.O.O.O.O.O.O.O.O.O=C([O-])[C@@H]1[O][Sb]2([O-])([O][Sb]34([OH])[O][C@H]([C@H](O)CO)[C@H]([O]3)[C@H](C(=O)[O-])[O]4)[O][C@H]([C@H](O)CO)[C@@H]1[O]2.[Na+].[Na+].[Na+] [SSG, Sodium Stibogluconate, reference compound]
level at which recombinant and intracellular SHP-1 and SHP-2 are inhibited (SHP-1 and SHP-2): 10 µg/mL
pLck-pY394 induction ([4]; lower (1 μg/ml) or higher (100 μg/ml) doses): failed

O=C1C=C(c2ccccc2)C(=O)c2ccccc21 [L5a3]
inhibition of phosphatase activity of recombinant SHP-1 (recombinant SHP-1): ~80%

COc1ccc(C2=CC(=O)C=CC2=O)cc1 [L5a5]
inhibition of phosphatase activity of recombinant SHP-1 (recombinant SHP-1): completely or almost completely inhibited

O=C1C=C(c2ccccc2Cl)CC(=O)C1 [L5a10]
inhibition of phosphatase activity of recombinant SHP-1 (recombinant SHP-1): ~5%
induction of spleno-IFNγ+ cells (average) ([2]; doses from 1-30 μg/ml): ~2 folds
inhibition of B16 melanoma tumors in mice (B16 melanoma tumors; preliminary experiment): failed to inhibit B16 melanoma tumors
effect on pLck-pY394 levels ([4]; Jurkat cells, 10 min (FIG. 10)): failed to induce pLck-pY394
